Experimental data taken from publication PMC8730463, “The human gut symbiont Ruminococcus gnavus shows specificity to blood group A antigen during mucin glycan foraging: Implication for niche colonisation in the gastrointestinal tract” (PLoS Biology, 2021).

Tests used:
[1] = biological target: T1, Ulex Europaeus Agglutinin I (UEA I) (Ulex europaeus, UniProt P22972); test: ITC (control lectin); format: binding
T1 sequence (P22972 1-243): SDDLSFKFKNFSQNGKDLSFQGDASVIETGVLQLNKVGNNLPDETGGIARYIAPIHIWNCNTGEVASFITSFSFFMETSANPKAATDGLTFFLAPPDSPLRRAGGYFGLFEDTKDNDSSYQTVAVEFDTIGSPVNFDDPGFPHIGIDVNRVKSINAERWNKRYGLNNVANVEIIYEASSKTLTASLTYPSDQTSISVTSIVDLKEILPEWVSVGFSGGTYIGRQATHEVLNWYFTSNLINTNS

RgGH98 = biological target: T2, RgGH98; test: crystal structure ([…] Å), ITC and STD NMR; format: binding, Mediterraneibacter gnavus
T2 construct: gene RGna_RS10325; 44–946 aa (N-term GBLD, catalytic domain, C-term domain)

| Kd [1] | Structure (SMILES) | Kd (RgGH98) |
| --- | --- | --- |
| 10.3 µM | CC(=O)N[C@H]1C(O)O[C@H](CO)[C@@H](O[C@@H]2O[C@H](CO)[C@H](O)[C@H](O)[C@H]2O[C@@H]2O[C@@H](C)[C@@H](O)[C@@H](O)[C@@H]2O)[C@@H]1O (some centres unmarked) [BgH, blood group H trisaccharide] | – |
| – | CC(=O)N[C@H]1[C@@H](O[C@H]2[C@@H](O)[C@@H](CO)O[C@@H](O[C@H]3[C@H](O)[C@@H](NC(C)=O)C(O)O[C@@H]3CO)[C@@H]2O[C@@H]2O[C@@H](C)[C@@H](O)[C@@H](O)[C@@H]2O)O[C@H](CO)[C@H](O)[C@@H]1O (some centres unmarked) [BgA II, blood group A tetrasaccharide type II] | 490 µM |
